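Following 48 hours of exposure in 96-well plates, responses at five concentrations were used to interpolate endpoints linearly. At the GI50, growth is halved. At the TGI there is no net growth.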
What was measured:
Assay in all cases: NCI tumour cell line growth inhibition, 48 h
[1] = test system: UACC-62 melanoma
[2] = test system: CCRF-CEM leukemia
[3] = test system: SR leukemia
[4] = test system: DU-145 prostate
[5] = test system: SF-268 CNS
[6] = test system: BT-549 breast
[7] = test system: NCI-H460 lung
[8] = test system: KM12 colon
[9] = test system: HCT-116 colon
[10] = test system: SK-MEL-5 melanoma
[11] = test system: OVCAR-4 ovarian
[12] = test system: EKVX NSCLC
[13] = test system: OVCAR-5 ovarian
[14] = test system: HOP-62 NSCLC
[15] = test system: MDA-MB-231 breast
[16] = test system: ACHN renal
[17] = test system: RPMI-8226 leukemia
[18] = test system: OVCAR-8 ovarian
[19] = test system: MOLT-4 leukemia
[20] = test system: HCC-2998 colon
[21] = test system: HOP-92 NSCLC
[22] = test system: U251 CNS
[23] = test system: UO-31 renal
[24] = test system: T-47D breast
[25] = test system: NCI-H522 lung
[26] = test system: MALME-3M melanoma
[27] = test system: IGROV1 ovarian
[28] = test system: LOX IMVI melanoma
[29] = test system: A549 NSCLC
[30] = test system: SNB-19 CNS
[31] = test system: CAKI-1 renal
[32] = test system: SNB-75 CNS
[33] = test system: SW-620 colon
[34] = test system: MCF7 breast
[35] = test system: NCI-H226 lung
[36] = test system: HL-60(TB) leukemia
[37] = test system: SK-MEL-2 melanoma
[38] = test system: NCI-H23 lung
[39] = test system: 786-0 renal
[40] = test system: SN12C renal
[41] = test system: HT29 colon
[42] = test system: UACC-257 melanoma
[43] = test system: TK-10 renal
[44] = test system: MDA-MB-435
[45] = test system: SK-OV-3 ovarian
[46] = test system: HS 578T breast
[47] = test system: A498 renal
[48] = test system: SF-539 CNS
[49] = test system: SF-295 CNS
[50] = test system: HCT-15 colon
[51] = test system: PC-3 prostate
[52] = test system: M14 melanoma
[53] = test system: K-562 leukemia
[54] = test system: RXF 393 renal
[55] = test system: COLO 205 colon
[56] = test system: SK-MEL-28 melanoma
[57] = test system: OVCAR-3 ovarian

For `C#CCNC(=S)N/N=C(\C)c1ccccn1`, the GI50 [1] was 1120 nM, the TGI [1] was 4380 nM and the GI50 [2] was 67.7 nM. The TGI [2] was > 100000 nM, the GI50 [3] was 328 nM and the TGI [3] was 3400 nM. For the same compound, the GI50 [4] was 404 nM, the TGI [4] was > 59300 nM and the GI50 [5] was 517 nM. The TGI [5] was > 100000 nM, the GI50 [6] was 618 nM and the TGI [6] was > 100000 nM. The GI50 [7] was 949 nM, the TGI [7] was 5220 nM and the GI50 [8] was 426 nM. For the same compound, the TGI [8] was > 100000 nM, the GI50 [9] was 32.9 nM and the TGI [9] was > 38000 nM. The GI50 [10] was 617 nM, the TGI [10] was 2700 nM and the GI50 [11] was 51.9 nM. The TGI [11] was 1350 nM, the GI50 [12] was 595 nM and the TGI [12] was > 100000 nM. For the same compound, the GI50 [13] was 885 nM, the TGI [13] was > 100000 nM and the GI50 [14] was 1250 nM. For the same compound, the TGI [14] was 16000 nM, the GI50 [15] was 292 nM and the TGI [15] was > 100000 nM. For the same compound, the GI50 [16] was 313 nM, the TGI [16] was > 100000 nM and the GI50 [17] was 201 nM. The TGI [17] was 1700 nM, the GI50 [18] was 284 nM and the TGI [18] was > 100000 nM. The GI50 [19] was 126 nM, the GI50 [20] was 1240 nM and the TGI [20] was > 100000 nM. For the same compound, the GI50 [21] was 280 nM, the TGI [21] was > 100000 nM and the GI50 [22] was 408 nM. For the same compound, the TGI [22] was > 100000 nM, the GI50 [23] was 333 nM and the TGI [23] was > 100000 nM. For the same compound, the GI50 [24] was 93.3 nM, the TGI [24] was > 100000 nM and the GI50 [25] was 3330 nM. The TGI [25] was > 100000 nM, the GI50 [26] was 1510 nM and the TGI [26] was > 100000 nM. The GI50 [27] was 52.2 nM, the TGI [27] was > 100000 nM and the GI50 [28] was 588 nM. For the same compound, the TGI [28] was > 32000 nM, the GI50 [29] was 1180 nM and the TGI [29] was > 100000 nM. The GI50 [30] was 3430 nM, the TGI [30] was > 100000 nM and the GI50 [31] was 396 nM. The TGI [31] was > 33800 nM, the GI50 [32] was 943 nM and the TGI [32] was > 23700 nM. The GI50 [33] was 341 nM, the TGI [33] was > 100000 nM and the GI50 [34] was 79.2 nM. The TGI [34] was > 100000 nM, the GI50 [35] was 406 nM and the TGI [35] was 3330 nM. It also gave a GI50 [36] of 84 nM, a TGI [36] of 360 nM and a GI50 [37] of 6200 nM. For the same compound, the TGI [37] was > 100000 nM, the GI50 [38] was 208 nM and the TGI [38] was > 100000 nM. For the same compound, the GI50 [39] was 354 nM, the TGI [39] was > 100000 nM and the GI50 [40] was 388 nM. For the same compound, the TGI [40] was > 100000 nM, the GI50 [41] was 234 nM and the TGI [41] was > 100000 nM. The GI50 [42] was 302 nM, the TGI [42] was 1490 nM and the GI50 [43] was 3070 nM. The TGI [43] was > 100000 nM, the GI50 [44] was 3100 nM and the TGI [44] was > 100000 nM. For the same compound, the GI50 [45] was 3000 nM, the TGI [45] was > 100000 nM and the GI50 [46] was 9840 nM. The TGI [46] was > 100000 nM, the GI50 [47] was 1070 nM and the TGI [47] was 10100 nM. The GI50 [48] was 350 nM, the TGI [48] was 3520 nM and the GI50 [49] was 706 nM. The TGI [49] was > 100000 nM, the GI50 [50] was 360 nM and the TGI [50] was > 100000 nM. The GI50 [51] was 393 nM, the TGI [51] was > 100000 nM and the GI50 [52] was 454 nM. The TGI [52] was 5150 nM, the GI50 [53] was 75.1 nM and the TGI [53] was > 100000 nM. The GI50 [54] was 641 nM, the TGI [54] was 4900 nM and the GI50 [55] was 184 nM. The TGI [55] was > 100000 nM, the GI50 [56] was 2320 nM and the TGI [56] was > 100000 nM. The GI50 [57] was 35.3 nM and the TGI [57] was 19400 nM.

Source: PubChem BioAssay (NCI)
